Assay results reported in patent US4103011A, “Novel penicillin compounds and process for preparation thereof” (priority 1976, dated 1978).
≈ marks a conversion by molar mass, not a printed value. Structures can show the parent of a compound that is named as a salt. Where two headings read alike, the source gives them in different places.

How the values were obtained:
Escherichia coli P-5101 [1] = assay: In vivo efficacy against systemic infection; set-up: species or system male mice (ddY); conditions: P5101, in Mus musculus, 168 h, sc, twice, about 5 minutes and 6 hours after infection, read-out: ED50 (median effective dose)
Protocol: (§1) The contents in the vials (No. A and No. C) prepared in Example 17 were each dissolved in deionized water, and injections having various concentrations were prepared.
(§2) Compounds A, B, F, G, H and M were dissolved in deionized water.
(§3) Mice: male mice (ddY) weighting about 20g
(§4) Intraperitoneal infection with 50 to
(§5) of a bacterial suspension in tryptosoy
(§6) twice, about 5 minutes and 6 hours after
(§7) calculated in accordance with the Behrens-Kaerber method [Arch. Exp. Path

[2] = system: Pseudomonas aeruginosa No. 12; assay: In vivo efficacy against systemic infection; set-up: species or system male mice (ddY); conditions: NO.12, in Mus musculus, sc, twice, about 5 minutes and 6 hours after infection, read-out: ED50 (median effective dose)
Protocol: as §1, §2, §3
Pseudomonas aeruginosa No. 12;
as §4, §5, §6
Pseudomonas aeruginosa No. 12
as §7

[3] = system: Streptococcus faecalis P-2473; assay: In vitro antibacterial activity (MIC); format: cell-based; conditions: Enterococcus faecalis
Text: (§8) In vitro antibacterial activity against 20 strains of bacteria
(§9) The numerals in the table show minimum inhibitory concentrations (MIC)

[4] = system: Klebsiella pneumoniae No. 13; assay: In vitro antibacterial activity (MIC); format: cell-based
Text: as §8, §9

[5] = system: Corynebacterium pyogenes C-21; assay: In vitro antibacterial activity (MIC); format: cell-based; conditions: Rhodococcus (subgen. Prescottella) equi, C21; Corynebacterium pyogenes C-21; read-out: minimum inhibitory concentration (MIC)
Text: as §8, §9

[6] = system: Pseudomonas aeruginosa Tsuchijima; assay: In vitro antibacterial activity (MIC); format: cell-based; conditions: read-out: minimum inhibitory concentration (MIC)
Text: as §8, §9

[7] = system: Salmonella typhimurium S-9; assay: In vitro antibacterial activity (MIC); format: cell-based; conditions: Salmonella enterica; Salmonella typhimurium S-9; read-out: minimum inhibitory concentration (MIC)
Text: as §8, §9

[8] = system: Escherichia coli NIHJ JC-2; assay: In vitro antibacterial activity (MIC); format: cell-based
Text: as §8, §9

Proteus morganii Kono = assay: In vitro antibacterial activity (MIC); format: cell-based; conditions: Morganella morganii, read-out: minimum inhibitory concentration (MIC)
Text: as §8, §9

Proteus rettgeri P-2503 = assay: In vitro antibacterial activity (MIC); format: cell-based; conditions: Providencia rettgeri
Text: as §8, §9

[9] = system: Salmonella enteritidis No. 1891; assay: In vitro antibacterial activity (MIC); format: cell-based; conditions: Salmonella enterica; Salmonella enteritidis No. 1891; read-out: minimum inhibitory concentration (MIC)
Text: as §8, §9

[10] = system: Pseudomonas aeruginosa No.12; assay: In vitro antibacterial activity (MIC); format: cell-based
Text: as §8, §9

Shigella flexneri 2a = assay: In vitro antibacterial activity (MIC); format: cell-based; conditions: read-out: minimum inhibitory concentration (MIC)
Text: as §8, §9

Proteus mirabilis P-2381 = assay: In vitro antibacterial activity (MIC); format: cell-based
Text: as §8, §9

[11] = system: Streptococcus pyogenes 65A; assay: In vitro antibacterial activity (MIC); format: cell-based; conditions: read-out: minimum inhibitory concentration (MIC)
Text: as §8, §9

[12] = system: Staphylococcus aureus 209P JC-1; assay: In vitro antibacterial activity (MIC); format: cell-based; conditions: read-out: minimum inhibitory concentration (MIC)
Text: as §8, §9

[13] = system: Enterobacter cloacae P-2540; assay: In vitro antibacterial activity (MIC); format: cell-based; conditions: P2540; Enterobacter cloacae P-2540; read-out: minimum inhibitory concentration (MIC)
Text: as §8, §9

[14] = system: Shigella flexneri 4a P-330; assay: In vitro antibacterial activity (MIC); format: cell-based; conditions: 4AP330, read-out: minimum inhibitory concentration (MIC)
Text: as §8, §9

Escherichia coli P-140a = assay: In vitro antibacterial activity (MIC); format: cell-based
Text: as §8, §9

[15] = system: Serratia mercescens IFO 3736; assay: In vitro antibacterial activity (MIC); format: cell-based
Text: as §8, §9

Escherichia coli P-5101 [16] = assay: In vitro antibacterial activity (MIC); format: cell-based
Text: as §8, §9

[17] = system: Staphylococcus aureus No. 50774; assay: In vitro antibacterial activity (MIC); format: cell-based
Text: as §8, §9

[18] = system: Staphylococcus aureus No. 50774; assay: In vivo efficacy against systemic infection; set-up: species or system male mice (ddY); conditions: NO.50774, in Mus musculus, 336 h, sc, twice, about 5 minutes and 6 hours after infection, read-out: ED50 (median effective dose)
Protocol: as §1
Compounds A, B, F, G, H and M were dissolved in deionized water. Compounds C, D, E and J were dissolved in an aqueous solution of sodium carbonate (pH 8-9) to prepare injections of various concentrations.
Each of the injections was administered to mice under the conditions described below, and the median effective doses (ED50) obtained are shown in Table II.
as §3
Staphylococcus aureus No. 50774;
Intravenous infection with 50 to 100
LD50 (about 5 × 10^8cells/mouse) of a
bacterial suspension in saline.
as §6
Staphylococcus aureus No. 50774 14 days
The numerals in the table show ED50 (mg/kg). ED50 values were
as §7

in vivo = conditions: mouse
20 strains of bacteria = assay: In vitro antibacterial activity, overall conclusions; format: cell-based; conditions: in vitro, Table I
Text: as §8

[19] = P2473, read-out: minimum inhibitory concentration (MIC)
[20] = Klebsiella pneumoniae, NO.13, read-out: minimum inhibitory concentration (MIC)
[21] = Pseudomonas aeruginosa Tsuchijima
[22] = Escherichia coli, NIHJJC2, read-out: minimum inhibitory concentration (MIC)
[23] = P2503, read-out: minimum inhibitory concentration (MIC)
[24] = Pseudomonas aeruginosa, NO.12, read-out: minimum inhibitory concentration (MIC)
[25] = Proteus mirabilis, P2381, read-out: minimum inhibitory concentration (MIC)
[26] = Serratia, IFO3736, read-out: minimum inhibitory concentration (MIC)
[27] = Staphylococcus aureus No. 50774, read-out: minimum inhibitory concentration (MIC)
[28] = Staphylococcus aureus 209P JC-1
[29] = P5101, Escherichia coli P-5101, read-out: minimum inhibitory concentration (MIC)
[30] = P2473, Streptococcus faecalis P-2473, read-out: minimum inhibitory concentration (MIC)
[31] = Klebsiella pneumoniae No. 13, read-out: minimum inhibitory concentration (MIC)
[32] = NIHJJC2, Escherichia coli NIHJ JC-2, read-out: minimum inhibitory concentration (MIC)
[33] = P2503, Proteus rettgeri P-2503, read-out: minimum inhibitory concentration (MIC)
[34] = Pseudomonas aeruginosa No.12, read-out: minimum inhibitory concentration (MIC)
[35] = P2381, Proteus mirabilis P-2381, read-out: minimum inhibitory concentration (MIC)
[36] = IFO3736, Serratia mercescens IFO 3736, read-out: minimum inhibitory concentration (MIC)

SMILES | ED50 (Escherichia coli P-5101 [1]) | ED50 [2] | MIC [3, 19] | MIC [4, 20] | MIC [5] | MIC [6, 21] | MIC [7] | MIC [8, 22] | MIC (Proteus morganii Kono) | MIC (Proteus rettgeri P-2503; [23]) | MIC [9] | MIC [10, 24] | MIC (Shigella flexneri 2a) | MIC [13] | MIC [14] | minimum inhibitory concentration (MIC) (Escherichia coli P-140a) | MIC [17, 27] | MIC ([11]; Streptococcus pyogenes 65A) | MIC [12, 28] | MIC (Escherichia coli P-5101 [16]; [29]) | also measured
CC1(C)S[C@@H]2[C@H](NC(=O)[C@H](NC(=O)c3c[nH]c4nc(N5CCN(C=O)CC5)ncc4c3=O)c3ccccc3)C(=O)N2[C@H]1C(=O)O [Compound B, D-α-[5,8-Dihydro-2-(4-formyl-1-piperazinyl)-5-oxopyrido[2,3-d]pyrimidine-6-carboxamido]-benzylpenicillin sodium salt] | 21 mg/kg | 17.7 mg/kg | 6.25 µg/mL | 6.25 µg/mL | 1.56 µg/mL | 1.56 µg/mL | 1.56 µg/mL | 6.25 µg/mL | 3.13 µg/mL | 6.25 µg/mL | 0.78 µg/mL | 6.25 µg/mL | 3.13 µg/mL | 12.5 µg/mL | 6.25 µg/mL | 12.5 µg/mL | 0.78 µg/mL |  |  |  | MIC (Proteus mirabilis P-2381; [25]): 3.13 µg/mL; MIC ([11]; Streptococcus pyogenes, 65A): < 0.1 µg/mL; MIC ([12]; Staphylococcus aureus, 209P): 0.78 µg/mL; MIC [15, 26]: 12.5 µg/mL; MIC (Escherichia coli P-5101 [16]; Escherichia coli, P5101, read-out: minimum inhibitory concentration (MIC)): 3.13 µg/mL; ED50 [18]: 3.4 mg/kg; LD50 at 168 h (in vivo; iv): 2830 mg/kg; LD50 at 168 h (in vivo; sc): < 4000 mg/kg
CN(C)c1ncc2c(=O)c(C(=O)N[C@@H](C(=O)N[C@@H]3C(=O)N4[C@@H]3SC(C)(C)[C@@H]4C(=O)O)c3ccc(O)cc3)c[nH]c2n1 [Compound E, D-α-(5,8-Dihydro-2-dimethylamino-5-oxopyrido[2,3-d]pyrimidine-6-carboxamido)-p-hydroxybenzylpenicillin] | 11 mg/kg | 32.4 mg/kg | 3.13 µg/mL (≈ 5.38 µM) | 12.5 µg/mL (≈ 21.5 µM) | 0.78 µg/mL (≈ 1.34 µM) | 1.56 µg/mL (≈ 2.68 µM) | 1.56 µg/mL (≈ 2.68 µM) | 6.25 µg/mL (≈ 10.7 µM) | 6.25 µg/mL (≈ 10.7 µM) | 6.25 µg/mL (≈ 10.7 µM) | 0.78 µg/mL (≈ 1.34 µM) | 3.13 µg/mL (≈ 5.38 µM) |  | 12.5 µg/mL (≈ 21.5 µM) | 6.25 µg/mL (≈ 10.7 µM) | 25 µg/mL (≈ 43 µM) | 0.78 µg/mL (≈ 1.34 µM) | 0.025 µg/mL (≈ 0.043 µM) | 0.78 µg/mL (≈ 1.34 µM) | 1.56 µg/mL (≈ 2.68 µM) | MIC (Proteus mirabilis P-2381; [25]): 3.13 µg/mL (≈ 5.38 µM); MIC [15, 26]: 6.25 µg/mL (≈ 10.7 µM); ED50 [18]: ~10 mg/kg; LD50 at 168 h (in vivo; sc): 1070 mg/kg; selectivity ratio (in vivo; sc): 33
O=CN1CCN(c2ncc3c(=O)c(C(=O)O)c[nH]c3n2)CC1 [Compound K, 5,8-Dihydro-2-(4-formyl-1-piperazinyl)-5-oxopyrido[2,3-d]pyrimidine-6-carboxylic acid] |  |  |  |  | > 50 µg/mL |  | > 50 µg/mL |  |  |  | > 50 µg/mL |  | > 100 µg/mL | > 200 µg/mL | > 100 µg/mL | > 200 µg/mL |  | > 100 µg/mL | > 50 µg/mL | > 100 µg/mL | MIC [3, 30]: > 50 µg/mL; MIC [4, 31]: > 200 µg/mL; MIC ([6]; Pseudomonas aeruginosa): > 200 µg/mL; MIC [8, 32]: > 100 µg/mL; MIC (Proteus morganii Kono; Proteus morganii Kono): > 200 µg/mL; MIC (Proteus rettgeri P-2503; [33]): > 100 µg/mL; MIC [10, 34]: > 200 µg/mL; MIC (Proteus mirabilis P-2381; [35]): > 50 µg/mL; MIC [15, 36]: > 100 µg/mL; MIC ([17]; Staphylococcus aureus, NO.50774, read-out: minimum inhibitory concentration (MIC)): > 50 µg/mL; antibacterial activity (in words) (20 strains of bacteria): do not substantially show antibacterial activity
CC(=O)N1CCN(c2ncc3c(=O)c(C(=O)O)c[nH]c3n2)CC1 [Compound L, 5,8-Dihydro-2-(4-acetyl-1-piperazinyl)-5-oxopyrido[2,3-d]pyrimidine-6-carboxylic acid] |  |  |  |  | > 50 µg/mL | > 200 µg/mL | > 50 µg/mL |  |  |  | > 50 µg/mL |  | > 100 µg/mL | > 200 µg/mL | > 100 µg/mL | > 200 µg/mL | > 50 µg/mL | > 100 µg/mL | > 50 µg/mL | > 100 µg/mL | MIC [3, 30]: > 50 µg/mL; MIC [4, 31]: > 200 µg/mL; MIC [8, 32]: > 100 µg/mL; MIC (Proteus morganii Kono; Proteus morganii Kono): > 200 µg/mL; MIC (Proteus rettgeri P-2503; [33]): > 100 µg/mL; MIC [10, 34]: > 200 µg/mL; MIC (Proteus mirabilis P-2381; [35]): > 50 µg/mL; MIC [15, 36]: > 100 µg/mL; antibacterial activity (in words) (20 strains of bacteria): do not substantially show antibacterial activity
